Measurements published in BindingDB's records for doi:10.1016/j.bmcl.2009.07.031 (Merck Research Laboratory, 2009).
Blank lines part the entries; values can stand above or below the compound they belong to.

What was measured:
[1] = Inhibition of HIV1 reverse transcriptase by SPA assay
[2] = Inhibition of HIV1 reverse transcriptase Y181C mutant by SPA assay

- IC50 [1]: 194 nM
Structure (SMILES): NS(=O)(=O)c1ccc(NC(=O)CCC(=O)N2CCCc3cc(Cl)cc(Cl)c32)c(Cl)c1

Structure (SMILES): NS(=O)(=O)c1ccc(NC(=O)COC(=O)N2CCCc3cc(Cl)cc(Cl)c32)c(Cl)c1
- IC50 [1]: 19 nM
- IC50 [2]: 116 nM

Structure (SMILES): Cc1ccc2c(c1)CCCN2C(=O)SCC(=O)Nc1ccc(S(N)(=O)=O)cc1Cl
- IC50 [2]: 1300 nM

Structure (SMILES): O=C(CSC(=O)N1CCCc2cc(Cl)cc(Cl)c21)Nc1ccccc1Cl
- IC50 [1]: 4 nM
- IC50 [2]: 175 nM

Structure (SMILES): N#Cc1ccc(NC(=O)CSC(=O)N2CCCc3cc(Cl)cc(Cl)c32)c(Cl)c1
- IC50 [1]: 7 nM
- IC50 [2]: 95 nM

- IC50 [1]: 336 nM
Structure (SMILES): NS(=O)(=O)c1ccc(NC(=O)CNC(=O)N2CCCc3cc(Cl)cc(Cl)c32)c(Cl)c1

Structure (SMILES): NS(=O)(=O)c1ccc(NC(=O)CSC(=O)N2CCCc3cccc(Cl)c32)c(Cl)c1
- IC50 [1]: 2 nM
- IC50 [2]: 31 nM

Structure (SMILES): CS(=O)(=O)c1ccc(NC(=O)CSC(=O)N2CCCc3cc(Cl)cc(Cl)c32)c(Cl)c1
- IC50 [1]: 4 nM
- IC50 [2]: 11 nM

- IC50 [1]: 8 nM
Structure (SMILES): NS(=O)(=O)c1ccc(NC(=O)CSC(=O)N2CCCc3cc(Cl)ccc32)c(Cl)c1

Structure (SMILES): NS(=O)(=O)c1ccc(NC(=O)CSC(=O)N2CCCc3cc(Cl)cc(Cl)c32)c(Cl)c1
- IC50 [2]: 4 nM

Structure (SMILES): NCCCNC(=O)c1ccc(NC(=O)CSC(=O)N2CCCc3cc(Cl)cc(Cl)c32)c(Cl)c1
- IC50 [1]: 2 nM
- IC50 [2]: 7 nM

Structure (SMILES): O=C(CSC(=O)N1CCCc2cc(Cl)cc(Cl)c21)Nc1ccc(C(=O)NCc2ccccc2)cc1Cl
- IC50 [1]: 2 nM
- IC50 [2]: 4 nM

Structure (SMILES): Cc1cc(C)c(N(C)C(=O)SCC(=O)Nc2ccc(S(N)(=O)=O)cc2Cl)c(C)c1
- IC50 [1]: 8 nM
- IC50 [2]: 80 nM

Structure (SMILES): Cc1cccc2c1N(C(=O)SCC(=O)Nc1ccc(S(N)(=O)=O)cc1Cl)CCC2
- IC50 [1]: 6 nM
- IC50 [2]: 61 nM
